# From ChEMBL document CHEMBL1201862, “PubChem BioAssay data set” (2004)
# Active and inactive are the calls of the source.
# What was measured:
# [1] = cytotoxicity toward NIH3T3 fibroblasts, dose response, counter-screen, cell-based, ATP luminescence, mouse fibroblasts (AID 2010); format: functional;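 note: cells exposed to compound for about 90 hours before reading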
# [2] = inhibitors of intracellular T. cruzi replication, confirmation, NIH3T3 host cells, beta-gal luminescence (AID 2044); format: functional, cell-based;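 note: intracellular parasites grown in NIH/3T3 mouse fibroblasts as host cells; luminescent beta-galactosidase reporter signal from transgenic T. cruzi replicating inside host cells; inhibitors lower the luminescence signal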
# Cytochrome P450 2C19 = Cytochrome P450 2C19 (Homo sapiens, UniProt P33261); test: Cytochrome panel assay with activity outcomes. Panel member name: p450-cyp2c19 Compounds with AC50 equal or less than 10 uM are considered active; format: functional
# [3] = target: T1, Replicative DNA helicase DnaB (Mycobacterium tuberculosis, UniProt P9WMR3); test: DnaB intein splicing inhibitors, dose response, biochemical, cell-free fluorescence (AID 449749); format: functional
# T1 sequence (P9WMR3 whole entry): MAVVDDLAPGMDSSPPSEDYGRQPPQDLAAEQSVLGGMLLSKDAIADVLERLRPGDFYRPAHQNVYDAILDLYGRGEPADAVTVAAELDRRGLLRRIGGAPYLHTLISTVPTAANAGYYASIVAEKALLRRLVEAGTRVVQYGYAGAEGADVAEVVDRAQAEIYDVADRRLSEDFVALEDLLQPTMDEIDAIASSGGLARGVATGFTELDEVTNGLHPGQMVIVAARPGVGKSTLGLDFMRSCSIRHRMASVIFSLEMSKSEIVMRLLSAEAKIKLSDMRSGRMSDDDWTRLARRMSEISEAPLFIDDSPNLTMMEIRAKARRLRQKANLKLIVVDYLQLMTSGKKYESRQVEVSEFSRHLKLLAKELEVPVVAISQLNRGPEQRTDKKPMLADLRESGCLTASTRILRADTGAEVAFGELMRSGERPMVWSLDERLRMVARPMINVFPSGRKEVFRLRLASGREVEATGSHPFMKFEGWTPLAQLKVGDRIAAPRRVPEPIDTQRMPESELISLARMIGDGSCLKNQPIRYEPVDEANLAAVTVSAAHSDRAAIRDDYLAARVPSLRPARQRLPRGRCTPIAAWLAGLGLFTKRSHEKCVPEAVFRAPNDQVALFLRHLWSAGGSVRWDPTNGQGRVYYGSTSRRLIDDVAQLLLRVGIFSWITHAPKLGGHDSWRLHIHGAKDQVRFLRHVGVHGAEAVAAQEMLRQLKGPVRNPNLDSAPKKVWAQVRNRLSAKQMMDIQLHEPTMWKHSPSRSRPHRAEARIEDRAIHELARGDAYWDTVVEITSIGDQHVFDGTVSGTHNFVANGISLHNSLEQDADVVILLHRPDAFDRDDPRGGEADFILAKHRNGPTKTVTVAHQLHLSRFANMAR
# Protein RecA = target: T2, Protein RecA (Mycobacterium tuberculosis, UniProt P9WHJ3); test: Fluorescence Cell-Free Homogeneous Dose Retest to Identify Inhibitors of RecA-Intein Splicing Activity. [Related pubchem assays (depositor defined):AID2097, AID2223, AID489010, AID492950]; format: functional
# T2 sequence (P9WHJ3 whole entry): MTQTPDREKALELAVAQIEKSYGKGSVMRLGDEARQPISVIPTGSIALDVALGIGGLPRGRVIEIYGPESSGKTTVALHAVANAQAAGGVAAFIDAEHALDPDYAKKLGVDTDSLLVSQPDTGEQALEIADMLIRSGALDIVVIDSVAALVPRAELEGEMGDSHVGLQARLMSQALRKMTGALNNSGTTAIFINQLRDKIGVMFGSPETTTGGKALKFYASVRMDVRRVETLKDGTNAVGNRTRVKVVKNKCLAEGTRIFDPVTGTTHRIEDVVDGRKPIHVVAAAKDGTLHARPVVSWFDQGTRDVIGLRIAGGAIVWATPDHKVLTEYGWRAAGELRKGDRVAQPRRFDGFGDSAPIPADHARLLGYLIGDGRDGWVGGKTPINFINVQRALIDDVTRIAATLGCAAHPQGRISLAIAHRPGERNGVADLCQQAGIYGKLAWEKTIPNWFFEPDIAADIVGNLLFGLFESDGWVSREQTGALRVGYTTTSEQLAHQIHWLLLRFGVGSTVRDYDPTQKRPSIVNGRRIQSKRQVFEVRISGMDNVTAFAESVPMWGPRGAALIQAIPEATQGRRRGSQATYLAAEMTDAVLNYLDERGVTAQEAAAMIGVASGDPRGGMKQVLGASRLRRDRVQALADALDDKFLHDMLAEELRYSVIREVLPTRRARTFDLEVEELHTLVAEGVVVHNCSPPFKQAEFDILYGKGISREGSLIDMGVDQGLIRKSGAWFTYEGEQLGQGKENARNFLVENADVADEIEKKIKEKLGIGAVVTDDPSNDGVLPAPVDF
# Cytochrome P450 1A2 = target: T3, Cytochrome P450 1A2 (Homo sapiens, UniProt P05177);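 note: PubChem cytochrome P450 panel assay, CYP1A2 panel member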
# T3 sequence (P05177 whole entry): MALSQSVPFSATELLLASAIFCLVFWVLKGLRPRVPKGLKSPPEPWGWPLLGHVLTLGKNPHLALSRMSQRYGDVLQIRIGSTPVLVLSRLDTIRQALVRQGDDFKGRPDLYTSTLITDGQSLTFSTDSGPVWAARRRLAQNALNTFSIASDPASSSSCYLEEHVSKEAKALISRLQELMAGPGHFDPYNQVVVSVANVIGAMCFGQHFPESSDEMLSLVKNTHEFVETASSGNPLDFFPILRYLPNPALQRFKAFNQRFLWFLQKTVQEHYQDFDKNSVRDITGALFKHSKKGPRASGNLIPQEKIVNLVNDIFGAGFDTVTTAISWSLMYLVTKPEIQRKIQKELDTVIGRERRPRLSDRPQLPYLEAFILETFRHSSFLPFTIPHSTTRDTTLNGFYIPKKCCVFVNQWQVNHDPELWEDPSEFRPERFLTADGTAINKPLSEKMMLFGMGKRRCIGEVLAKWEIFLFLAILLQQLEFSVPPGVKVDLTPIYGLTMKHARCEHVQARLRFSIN
# [4] = test system: Streptococcus sp. 'group A'; test: growth inhibition of control SK(-) GAS strain, dose response, counter-screen for streptokinase expression inhibitor project, luminescence, kanamycin, BacTiterGlo, confirmation (AID 1900); format: functional, organism-based
# Streptococcus = test: Group A Streptococcus viability loss, dose response, counter-screen for streptokinase expression inhibitor project, luminescence, BacTiterGlo (AID 1915); format: functional, organism-based;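 note: potency for reduction of bacterial viability or growth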
# Cytochrome P450 2C19, sequence (P33261 whole entry): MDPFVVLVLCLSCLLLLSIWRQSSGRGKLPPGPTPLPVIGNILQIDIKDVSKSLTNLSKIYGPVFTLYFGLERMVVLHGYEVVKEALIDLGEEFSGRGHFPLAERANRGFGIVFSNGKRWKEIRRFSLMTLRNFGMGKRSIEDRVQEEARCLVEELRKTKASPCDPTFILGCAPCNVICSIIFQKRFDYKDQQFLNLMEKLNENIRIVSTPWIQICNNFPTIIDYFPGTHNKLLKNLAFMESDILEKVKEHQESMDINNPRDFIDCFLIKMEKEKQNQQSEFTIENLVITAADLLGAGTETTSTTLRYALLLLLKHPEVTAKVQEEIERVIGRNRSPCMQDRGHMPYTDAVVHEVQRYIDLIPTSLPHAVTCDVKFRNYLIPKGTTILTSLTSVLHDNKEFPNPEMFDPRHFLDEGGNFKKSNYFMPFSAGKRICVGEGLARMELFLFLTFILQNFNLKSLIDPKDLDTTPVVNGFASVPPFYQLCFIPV
compound,measurement,setting,value
Cn1cc(CN2CCCC(CO)(Cc3ccccc3)C2)c2ccccc21 (stereo not given),EC50,[1],> 60 µM (not active)
same,EC50,[2],0.62 µM (active)
CC(C)=NO[C@@H](C)c1cn([C@@H]2COC[C@@H]2O)nn1,AC50,Cytochrome P450 2C19,inconclusive
Cc1ccc(C2C(C#N)=C(N)Oc3n[nH]c(-c4cccs4)c32)cc1 (stereo not given),AC50,[3],4.21 µM (active)
same,EC50,Protein RecA,1.12 µM (active)
O=C(c1cccc(C(F)(F)F)c1)C1CCCN(Cc2ncc[nH]2)C1 (stereo not given),AC50,[3],> 380 µM (inactive)
same,EC50,Protein RecA,> 380 µM (inactive)
Fc1ccc(N/N=C/c2ccc(N3CCOCC3)cc2)c(F)c1,EC50,[1],> 30 µM (not active)
same,EC50,[2],0.406 µM (active)
O=[N+]([O-])c1ccc2ncccc2c1CCc1c([N+](=O)[O-])ccc2ncccc12,AC50,Cytochrome P450 1A2,3.16 µM (inconclusive)
O=C(c1c[nH]c(C(=O)C(Cl)(Cl)Cl)c1)c1ccc(F)cc1Cl,AC50,[3],13 µM (active)
same,EC50,Protein RecA,4.49 µM (active)
COc1ccc(/C=C2\CCCc3c2nc2ccccc2c3C(=O)OCC(=O)c2c(N)n(C)c(=O)n(C)c2=O)cc1,EC50,[1],> 60 µM (not active)
same,EC50,[2],1.05 µM (active)
N=C(N)SCCCN,AC50,Cytochrome P450 1A2,6.31 µM (inconclusive)
same,AC50,Cytochrome P450 2C19,inconclusive
C[C@@](N)(C(=O)O)c1ccc(P(=O)(O)O)cc1,AC50,Cytochrome P450 1A2,39.8 µM (inconclusive)
COC(=O)[C@@]1(Cc2ccccc2)[C@@H]2C(=CC(=O)[C@H]2CC(=O)C(=O)N(C)C)CN1C(=O)c1ccccc1,AC50,[3],< 0.018 µM (active)
same,EC50,Protein RecA,5.12 µM (active)
COc1ccc(NC(=O)N2CCCC3(CCNCC3)C2)cc1,AC50,Cytochrome P450 2C19,inconclusive
CC(C)CN1CCCC(N2CCN(c3cccc(Cl)c3)CC2)C1 (stereo not given),EC50,[1],> 60 µM (not active)
same,EC50,[2],3.19 µM (active)
CCN(CC)CCNc1c2c(c(C#N)c3nc4ccccc4n13)CCCC2,EC50,[1],> 60 µM (not active)
same,EC50,[2],0.226 µM (active)
CC1(C)CCC(C)(C)c2c1ccc(O)c2Cc1c(O)ccc2c1C(C)(C)CCC2(C)C,AC50,Cytochrome P450 1A2,5.01 µM (inconclusive)
O=[N+]([O-])c1ccc2c(OCc3nnc(-c4ccccc4Br)o3)ncnc2c1,EC50,[1],10.4 µM (active)
same,EC50,[2],0.213 µM (active)
N#Cc1cnn(-c2nc(SCc3ccccc3)nc3sc4c(c23)CCCC4)c1N,EC50,[1],> 60 µM (not active)
same,EC50,[2],2.24 µM (active)
CN1CCN(c2ccc([N+](=O)[O-])c3[nH]o[n+](=O)c23)CC1,AC50,Cytochrome P450 1A2,0.398 µM (inconclusive)
CC1CC(=O)c2cnc(N)nc2C1 (stereo not given),AC50,Cytochrome P450 2C19,inconclusive
O=C(Nc1nc(-c2ccccc2)c(-c2ccccc2)s1)c1ccc(S(=O)(=O)N(CCCl)CCCl)cc1,EC50,[1],> 30 µM (not active)
same,EC50,[2],1.25 µM (active)
O=[N+]([O-])c1c(NCc2ccco2)ccc2nonc12,AC50,[3],8.52 µM (active)
same,EC50,Protein RecA,10.1 µM (active)
COCc1c(Br)c(C)nc(OCC(=O)N/N=C/c2cc(C)n(-c3ccc([N+](=O)[O-])cc3)c2C)c1C#N,EC50,[1],> 60 µM (not active)
same,EC50,[2],1.95 µM (active)
Cc1cc(C)c(C#N)c(Oc2ccc(F)cc2)n1,AC50,Cytochrome P450 2C19; read-out: AC50,39.8 µM (inconclusive)
CCNC(=O)c1ccc(-n2nc(C)cc2-c2ccccc2)cc1,AC50,Cytochrome P450 1A2,14.1 µM (inconclusive)
NC(=S)N/N=C/c1ccc(-c2cc(Cl)c(Cl)cc2Cl)o1,EC50,[1],> 60 µM (inconclusive)
same,EC50,[2],0.122 µM (active)
Cc1cc(C(F)(F)F)c2c(n1)sc1c(O)cc(O)nc12,EC50,[4],27.8 µM (active)
same,EC50,Streptococcus,> 150 µM (not active)
O=C1c2ccccc2C(=O)N1CCSC(=S)N1CCOCC1,AC50,Cytochrome P450 1A2,3.16 µM (inconclusive)
Cc1ccc(C(=O)n2cnc3ccccc32)cc1C,AC50,[3],37.7 µM (active)
same,EC50,Protein RecA,124 µM (active)
CCOC(=O)Nc1ccc2c(c1)N(C(=O)CCN(C)C)c1ccccc1S2,EC50,[1],> 60 µM (not active)
same,EC50,[2],1.8 µM (active)
O=C(c1ccc([N+](=O)[O-])s1)N1CCc2ccccc2C1,EC50,[1],> 60 µM (not active)
same,EC50,[2],0.476 µM (active)
CS(=O)(=O)Nc1cccc(-c2ccc3ncnc(NC4CCNCC4)c3c2)c1,AC50,Cytochrome P450 1A2,31.6 µM (inconclusive)
Cc1nc2ncnn2c(O)c1NC(=O)CC12CC3CC(CC(C3)C1)C2,AC50,Cytochrome P450 2C19; read-out: AC50,44.7 µM (inconclusive)
CC(C)(C)Nc1nc(Cl)nc(N(C#N)CN2C(=O)c3ccccc3S2(=O)=O)n1,AC50,[3],15.5 µM (active)
same,EC50,Protein RecA,18.4 µM (active)
CN1CCC(N(C)S(=O)(=O)c2ccc(NC(=O)COc3cccc(Cl)c3)cc2)CC1,EC50,[1],> 30 µM (not active)
same,EC50,[2],0.268 µM (active)
CCCCCCSc1ccc(-c2nc3ccc(C)cn3c2NCc2ccccc2)cc1OC,EC50,[1],8.59 µM (active)
same,EC50,[2],0.701 µM (active)
CCCC(=O)NNC(=O)Nc1ccccc1,AC50,Cytochrome P450 2C19; read-out: AC50,28.2 µM (inconclusive)
Cc1ccc(C)c(/N=C2\C(Cl)=C(O)OC2OC(=O)c2ccco2)c1 (stereo not given),AC50,[3],20 µM (active)
same,EC50,Protein RecA,9.37 µM (active)
COc1ccccc1NC(=O)CCN1C(=O)C2CC=C(Cl)CC2C1=O (stereo not given),AC50,Cytochrome P450 2C19; read-out: AC50,7.94 µM (inconclusive)
CCOc1ccc(N(C(C)C(=O)N/N=C(\C)c2cccc(NC(=O)c3ccccc3)c2)S(C)(=O)=O)cc1 (stereo not given),AC50,Cytochrome P450 1A2,14.1 µM (inconclusive)
CC(C)CCN1CCN(C2CCN(c3ccc4c(c3)OCO4)CC2)CC1CCO (stereo not given),EC50,[1],> 60 µM (not active)
same,EC50,[2],1.56 µM (active)
